According to patent US20080064088A1, “DEVICES AND METHODS FOR PHARMACOKINETIC-BASED CELL CULTURE SYSTEM” (priority 2006, published 2008):
“Also recorded” adds a separate entry of the source.

How the values were obtained:
[1] = tested on: HCT-116 human colon cancer cells; conditions: for cell death of HCT-116 cells, chip seeded with HCT-116 cells only: no cells in the liver compartment, 24 hours
Method: FIG. 16 Tegafur dose response. […] The chips were treated with indicated concentrations of tegafur for 24 hours. The first graph (FIG. 16A) is a plot of percentage dead cells vs. tegafur or 5-FU concentration after 24 hours of re-circulation on the chip. The second graph (FIG. 16B) is a similar dose response using a traditional in vitro cell culture assay with HCT 116 cells using a 48 hour exposure. HCT-116 cells were seeded on poly-lysine treated glass coverslips and exposed to either tegafur or 5-FU at the indicated concentrations. After a 48 hr incubation, coverslips were treated as described above and the percentage of cell death was determined.
(§1) LIVE/DEAD stain is a two-component stain consisting of calcein AM and ethidium homodimer. Living cells actively hydrolyze the acetoxymethyl ester (AM) moiety of calcein AM to produce bright green fluorescence of calcein. In contrast, cells that have compromised membrane integrity allow the normally membrane impermeant ethidium homodimer to stain the nucleus of dead or dying cells fluorescent red. The cell permeant nuclear stain, Hoechst 33342 acts as a general stain for all cells. Together with the appropriate filter sets, living cells fluoresce green, dying or dead cells red, and all cells are quantified by a blue nuclear fluorescence. For experiments described herein, trypan blue was used at 0.2% (w/v), calcein AM at 1:20,000, propidium iodide at 1:5,000, and Hoechst 33342 at 10 μg/ml. Cells were visualized with a M2Bio stereofluorescence microscope (Zeiss). All experiments were repeated at least three times and measurements done in triplicate.
[…] Tegafur was added to the re-circulating medium at various concentrations for 24 hours and the cells labeled with Hoechst 33342, a membrane permeable DNA dye, and ethidium homodimer, a membrane impermeable DNA dye (see Methods Section).

HCT-116 cells = test: Traditional in vitro cell culture assay, HCT-116 on poly-lysine treated glass coverslips; type: cell-based, human; conditions: for cytotoxicity to HCT-116 cells, traditional cell culture assay: 48 hr incubation
Method: FIG. 16 Tegafur dose response. Chips were seeded with HepG2-C3A cells in the liver compartment and HCT-116 colon cancer cells in the target tissues compartment. The chips were treated with indicated concentrations of tegafur for 24 hours. The first graph (FIG. 16A) is a plot of percentage dead cells vs. tegafur or 5-FU concentration after 24 hours of re-circulation on the chip. The second graph (FIG. 16B) is a similar dose response using a traditional in vitro cell culture assay with HCT 116 cells using a 48 hour exposure. HCT-116 cells were seeded on poly-lysine treated glass coverslips and exposed to either tegafur or 5-FU at the indicated concentrations. After a 48 hr incubation, coverslips were treated as described above and the percentage of cell death was determined.
To measure the cytotoxic effects of tegafur against colon cancer cells, the microscale chip was prepared with HepG2-C3A cells in the liver compartment and HCT-116 human colon cancer cells in the target tissue compartment. Tegafur was added to the re-circulating medium at various concentrations for 24 hours and the cells labeled with Hoechst 33342, a membrane permeable DNA dye, and ethidium homodimer, a membrane impermeable DNA dye (see Methods Section).

HepG2/C3A cells [2] = test: LIVE/DEAD assay on poly-D-lysine treated glass coverslips; type: cell-based, human; conditions: 1 μM, 24 hours
Source text: as §1
The LIVE/DEAD assay was optimized (see Methods section) using cells grown on glass coverslips. Briefly, HepG2/C3A cells were seeded onto poly-D-lysine treated glass coverslips and treated with and without 1 μM staurosporine for 24 hours. […]

HCT116 cells [3] = test: LIVE/DEAD cytotoxicity assay on microscale chip system; type: cell-based, human; conditions: 1 μM, 24 hour treatment, compared to untreated control cell chips
Source text: as §1
(§2) Two different assays to detect apoptosis were investigated. The first assay was the immunofluorescence-based terminal deoxynucleotidyl transferase BrdU nick end labeling (TUNEL) technique available in kit form as APOPTAG™ (Intergen Co., MA) (see Methods section).

HepG2/C3A cells [4] = test: APOPTAG (TUNEL) apoptosis assay on glass coverslips; type: cell-based, human; conditions: 1 μM, 24-hour incubation, compared to untreated controls
Source text: (§3) In contrast to annexin V labeling, the APOPTAG™ kit (Intergen Co., MA) uses terminal deoxynucleotidyl transferase to label free 3′-OH DNA termini exposed during apoptotic DNA degradation and visualization using immunofluorescence (Li, X., Traganos, F., Melamed, M. R., and Darzynkiewicz, Z. (1995). Single-step procedure for labeling DNA strand breaks with flourescein-or BODIPY-conjugated deoxynucleotides: detection of apoptosis and bromodeoxyuridine incorporation. Cytometry 20, 172-180). Although this method is highly specific for apoptosis, the procedure cannot be done on-chip due to the fixation and incubation steps. Briefly, microscale chips were run under specified experimental conditions, the cell chips were removed from their housing units, fixed in 1% paraformaldehyde and processed with the APOPTAG™ kit using the manufacturer's protocol.
as §2, with “section). The assay was first optimized using cells grown on glass coverslips. Briefly, HepG2/C3A cells were seeded onto poly-D-lysine treated glass coverslips and treated with and without staurosporine. Coverslips were processed as described (see Methods section). […]” for “section).”

HCT116 cells [5] = test: APOPTAG (TUNEL) apoptosis assay on microscale chip system; type: cell-based, human; conditions: 1 μM, 24 hour exposure, compared to untreated controls
Source text: as §3
as §2, with “section). The assay was first optimized using cells grown on glass coverslips. Briefly, HepG2/C3A cells were seeded onto poly-D-lysine treated glass coverslips and treated with and without staurosporine. Coverslips were processed as described (see Methods section). […]” for “section).”

[6] = tested on: HepG2/C3A cells in the liver compartment and HCT116 cells in the target tissues compartment; test: Annexin V-FITC apoptosis assay on microscale chip system; type: cell-based, human; conditions: 1 μM, 6-hour treatment, compared to untreated control cell chips
Method: With the microscale chip, annexin V-FITC labeling was visualized directly on-chin, by first flushing the system with PBS, then recirculating annexin V-FITC (10 μg/ml in annexin V binding buffer, Clontech) for 30 min. Cells were then visualized directly using a FITC filter set.
The annexin V-FITC was used to detect apoptosis in the microscale chip system as described in the Methods section. Briefly, the microscale chip cell chips were seeded with HepG2/C3A cells in the liver compartment and HCT116 cells in the target tissues compartment. Cell chips were loaded onto the microscale chip system and treated with and without 1 μM staurosporine as described above. After a 6-hour incubation, the re-circulating medium was switched to PBS containing Annexin V-FITC and Hoechst 33342 and allowed to flow through the system for 30 minutes. Cell chips were removed from the acrylic housing and visualized under a fluorescent microscope. Cells were visualized under a fluorescent microscope and fluorescent images of identical fields were obtained using the appropriate filter sets.

[7] = tested on: HT29 human colon cancer cells; test: Microscale chip, HepG2-C3A liver compartment and HT29 target tissue compartment, live/dead fluorescence; type: cell-based; conditions: 24 hours; for efficacy against HT-29 colon cancer cells (mutant p53) in the chip: chip with HepG2-C3A liver compartment
Source text: as §1

Question: For `O=c1[nH]cc(F)c(=O)[nH]1` [5-FU, 5-fluorouracil], which “cell death of HCT-116 cells, chip seeded with HCT-116 cells only” value [1] is on record?
Answer: Its value is “caused substantial cell death”.

Question: And the “exposure at which cytotoxicity was observed, traditional cell culture assay” value (HCT-116 cells)?
Answer: Its value is 48 h.

Question: And the “cytotoxicity to HCT-116 cells, traditional cell culture assay” value (HCT-116 cells)?
Answer: The value was “triggered cell death”.

Question: For `CN[C@@H]1C[C@H]2O[C@@](C)([C@@H]1OC)n1c3ccccc3c3c4c(c5c6ccccc6n2c5c31)C(=O)NC4` [Staurosporine], which “cell death of HepG2/C3A cells (LIVE/DEAD)” value (HepG2/C3A cells [2]) is on record?
Answer: Its value is “clearly cause cell death”.

Question: What about the “cell death of HCT116 cells (LIVE/DEAD) on chip” value (HCT116 cells [3]) of the same molecule?
Answer: The value was “Significant cell death; also recorded: significant apoptosis (or cytotoxicity)”.

Question: What about the “apoptosis of HepG2/C3A cells (APOPTAG)” value (HepG2/C3A cells [4]) of the same molecule?
Answer: The value was “significant apoptosis”.

Question: And the “apoptosis of HCT116 cells (APOPTAG) on chip” value (HCT116 cells [5])?
Answer: Its value is “significant apoptosis (or cytotoxicity)”.

Question: What about the “apoptosis (annexin V-FITC) on chip” value [6] of the same molecule?
Answer: The value was “significant apoptosis”.

Question: For `CC1=C(CC(=O)O)c2cc(F)ccc2/C1=C\c1ccc([S+](C)[O-])cc1` (stereo not drawn) [Sulindac, sulindac sulfoxide], which “cell death of HT29 cells in the chip” value ([7]; One hundred micromoles in re-circulating medium, absence of the HepG2-C3A liver cells) is on record?
Answer: Its value is “minimal levels of cell death”.

Question: And the “efficacy against HT-29 colon cancer cells (mutant p53) in the chip” value [7]?
Answer: Its value is “effective”.

Question: What does the source list for `O=c1[nH]c(=O)n(C2CCCO2)cc1F` (stereo not drawn) [Tegafur, 5-fluoro-1-(2-tetrahydrofuryl)-2,4(1H,3H)-pyrimidinedione]?
Answer: efficacy against HT-29 colon cancer cells (mutant p53) in the chip [7]: ineffective; cytotoxicity to HCT-116 cells in the microscale chip [1]: cytotoxic to HCT-116 cells in a dose-dependent fashion; exposure at which cytotoxicity was observed, microscale chip [1]: 24 h; cell death of HCT-116 cells, chip seeded with HCT-116 cells only [1]: did not cause significant cell death; cytotoxicity to HCT-116 cells, traditional cell culture assay (HCT-116 cells): ineffective
